Reference: patent US12685735B2 (Foghorn Therapeutics Inc., priority 2020, dated 2026)
Like-named read-outs stand apart in the source and are kept apart here.

Tests used:
BRG-1 = BRG-1 (Homo sapiens, UniProt P51532); assay: ATPase catalytic activity assay of BRG-1 (ADP-Glo); assay type: biochemical; settings: ATPase catalytic activity, ADP-Glo; for IC50: read-out: BRG1 IC50 (μM)*; for Emax: read-out: BRG1 Max % Inhibition
Procedure, shortened: (§1)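 Once the enzyme reaction finished, residual ATP is removed with ADP-Glo Reagent over 40 minutes at room temperature. Kinase Detection Reagent then converts product ADP into ATP during a 60-minute room-temperature incubation, and the luciferase signal is read.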

BRM = BRM (Homo sapiens, UniProt P51531); assay: ATPase catalytic activity assay of BRM (ADP-Glo); assay type: biochemical; settings: for IC50: read-out: BRM IC50 (μM)*
Procedure, shortened: as §1

Sequence of BRG-1 (P51532 whole entry): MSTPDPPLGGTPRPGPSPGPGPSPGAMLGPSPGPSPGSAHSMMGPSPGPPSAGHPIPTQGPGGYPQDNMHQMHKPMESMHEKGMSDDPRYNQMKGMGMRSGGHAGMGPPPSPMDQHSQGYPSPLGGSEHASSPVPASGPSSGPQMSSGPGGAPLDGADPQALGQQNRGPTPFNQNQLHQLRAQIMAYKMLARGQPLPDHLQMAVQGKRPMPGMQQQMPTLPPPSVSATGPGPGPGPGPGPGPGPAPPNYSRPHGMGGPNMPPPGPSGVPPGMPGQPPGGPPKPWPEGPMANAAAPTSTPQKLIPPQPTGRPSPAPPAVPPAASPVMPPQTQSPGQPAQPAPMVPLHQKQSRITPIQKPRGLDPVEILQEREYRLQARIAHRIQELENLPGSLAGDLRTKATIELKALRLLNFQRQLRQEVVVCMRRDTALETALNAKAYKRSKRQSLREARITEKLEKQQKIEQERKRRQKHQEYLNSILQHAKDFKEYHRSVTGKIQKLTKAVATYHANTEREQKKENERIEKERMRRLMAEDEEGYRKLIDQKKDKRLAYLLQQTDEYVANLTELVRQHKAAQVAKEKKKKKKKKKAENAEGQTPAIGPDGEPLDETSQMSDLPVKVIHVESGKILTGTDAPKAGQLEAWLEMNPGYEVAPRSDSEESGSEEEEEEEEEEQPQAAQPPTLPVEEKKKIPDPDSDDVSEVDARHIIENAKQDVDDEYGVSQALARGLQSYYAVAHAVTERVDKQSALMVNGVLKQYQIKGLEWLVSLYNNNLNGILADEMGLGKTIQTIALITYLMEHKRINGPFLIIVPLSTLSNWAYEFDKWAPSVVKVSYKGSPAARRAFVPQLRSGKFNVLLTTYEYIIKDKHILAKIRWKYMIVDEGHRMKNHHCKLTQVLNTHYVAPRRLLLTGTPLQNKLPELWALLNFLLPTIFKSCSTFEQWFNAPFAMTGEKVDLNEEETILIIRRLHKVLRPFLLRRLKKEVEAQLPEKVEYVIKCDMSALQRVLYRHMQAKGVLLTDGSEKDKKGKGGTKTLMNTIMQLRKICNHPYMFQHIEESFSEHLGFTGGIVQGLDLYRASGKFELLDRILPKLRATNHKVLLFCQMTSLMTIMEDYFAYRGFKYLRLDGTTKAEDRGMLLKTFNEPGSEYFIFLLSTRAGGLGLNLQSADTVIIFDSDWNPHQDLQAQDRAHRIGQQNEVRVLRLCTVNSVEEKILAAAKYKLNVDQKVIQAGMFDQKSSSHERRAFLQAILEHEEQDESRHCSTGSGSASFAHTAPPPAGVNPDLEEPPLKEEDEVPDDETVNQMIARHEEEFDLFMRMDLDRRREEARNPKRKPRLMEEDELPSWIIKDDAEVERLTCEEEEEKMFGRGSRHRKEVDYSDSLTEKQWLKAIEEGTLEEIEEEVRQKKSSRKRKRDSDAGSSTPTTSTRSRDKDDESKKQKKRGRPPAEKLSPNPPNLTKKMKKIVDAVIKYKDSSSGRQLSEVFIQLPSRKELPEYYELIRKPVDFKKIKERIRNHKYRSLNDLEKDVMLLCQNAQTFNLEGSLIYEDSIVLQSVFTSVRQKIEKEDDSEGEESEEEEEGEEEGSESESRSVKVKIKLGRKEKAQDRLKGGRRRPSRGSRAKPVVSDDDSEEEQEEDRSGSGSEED
Sequence of BRM (P51531 whole entry): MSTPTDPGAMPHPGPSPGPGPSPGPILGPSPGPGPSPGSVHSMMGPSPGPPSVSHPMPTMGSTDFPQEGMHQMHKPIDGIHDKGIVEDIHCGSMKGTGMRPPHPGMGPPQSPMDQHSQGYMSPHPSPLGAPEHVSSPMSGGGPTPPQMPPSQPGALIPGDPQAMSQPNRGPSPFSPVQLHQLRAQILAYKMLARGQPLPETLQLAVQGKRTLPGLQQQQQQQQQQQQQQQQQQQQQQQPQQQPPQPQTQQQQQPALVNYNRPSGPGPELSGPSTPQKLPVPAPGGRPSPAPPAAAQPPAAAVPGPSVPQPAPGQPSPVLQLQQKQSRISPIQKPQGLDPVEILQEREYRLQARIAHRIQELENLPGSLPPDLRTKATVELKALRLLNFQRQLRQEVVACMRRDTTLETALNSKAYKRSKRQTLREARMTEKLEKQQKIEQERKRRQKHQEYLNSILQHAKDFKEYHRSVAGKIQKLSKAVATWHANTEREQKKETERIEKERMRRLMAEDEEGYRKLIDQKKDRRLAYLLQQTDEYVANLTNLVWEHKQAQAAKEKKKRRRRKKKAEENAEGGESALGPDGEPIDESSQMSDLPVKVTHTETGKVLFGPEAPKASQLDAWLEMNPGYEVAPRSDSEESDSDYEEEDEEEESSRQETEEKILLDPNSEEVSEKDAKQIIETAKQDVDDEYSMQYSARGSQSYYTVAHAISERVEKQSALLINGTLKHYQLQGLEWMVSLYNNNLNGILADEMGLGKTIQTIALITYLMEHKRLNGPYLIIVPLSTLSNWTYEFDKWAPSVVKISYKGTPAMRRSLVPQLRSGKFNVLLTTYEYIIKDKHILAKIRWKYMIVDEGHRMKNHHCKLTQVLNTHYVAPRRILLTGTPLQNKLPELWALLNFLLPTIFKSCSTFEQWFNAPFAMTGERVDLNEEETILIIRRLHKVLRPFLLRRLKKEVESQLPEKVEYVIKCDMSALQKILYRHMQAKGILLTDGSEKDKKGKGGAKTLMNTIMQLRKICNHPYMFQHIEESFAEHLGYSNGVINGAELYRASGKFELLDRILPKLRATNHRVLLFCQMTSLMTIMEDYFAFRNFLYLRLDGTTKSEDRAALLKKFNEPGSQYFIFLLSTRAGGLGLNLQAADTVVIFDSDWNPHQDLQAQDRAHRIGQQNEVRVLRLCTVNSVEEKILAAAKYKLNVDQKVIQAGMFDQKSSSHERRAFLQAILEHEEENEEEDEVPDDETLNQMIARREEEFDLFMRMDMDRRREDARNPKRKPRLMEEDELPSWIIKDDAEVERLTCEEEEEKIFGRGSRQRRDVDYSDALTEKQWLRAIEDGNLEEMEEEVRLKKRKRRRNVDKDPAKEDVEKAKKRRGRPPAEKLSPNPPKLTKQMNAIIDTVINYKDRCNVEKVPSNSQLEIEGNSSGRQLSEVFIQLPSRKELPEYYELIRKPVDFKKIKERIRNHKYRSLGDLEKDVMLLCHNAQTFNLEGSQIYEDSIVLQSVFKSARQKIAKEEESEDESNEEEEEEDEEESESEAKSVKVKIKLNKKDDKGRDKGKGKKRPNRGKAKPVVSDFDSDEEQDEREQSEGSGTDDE

## Cn1ccc(-c2cccc(-c3csc(NC(=O)CNC(=O)c4ccc5c(c4)[C@@](C)(CO)CC5)n3)n2)n1 [Compound 192, (3S)-3-(hydroxymethyl)-3-methyl-N-[2-[[4-[6-(1-methylpyrazol-3-yl)-2-pyridyl]thiazol-2-yl]amino]-2-oxo-ethyl]indane-5-carboxamide]
BRG-1
  IC50: 1 to 5 µM
  Emax: > 60%
BRM
  BRM Max % Inhibition: >90%
  IC50: 0.1 to 1 µM

## C[C@@H]1CN(c2cccc(-c3csc(NC(=O)CNC(=O)c4ccc5c(c4)[C@](C)(CO)CN5C)n3)c2)C[C@H](C)O1 [Compound 403, (S)-N-(2-((4-(3-((cis)-2,6-dimethylmorpholino)phenyl)thiazol-2-yl)amino)-2-oxoethyl)-3-(hydroxymethyl)-1,3-dimethylindoline-5-carboxamide]
BRG-1
  IC50: 1 to 5 µM
  Emax: > 90%
BRM
  BRM Max % Inhibition: >90%
  IC50: 0.1 to 1 µM

## C[C@@]1(C#N)COCc2ccc(C(=O)NCC(=O)Nc3nc(-c4cccc([C@H]5CC5(F)F)n4)cs3)cc21 [Compound 387, (R)-4-cyano-N-(2-((4-(6-((R)-2,2-difluorocyclopropyl)pyridin-2-yl)thiazol-2-yl)amino)-2-oxoethyl)-4-methylisochromane-6-carboxamide]
BRG-1
  IC50: 1 to 5 µM
  Emax: > 95%
BRM
  BRM Max % Inhibition: >95%
  IC50: < 0.1 µM

## C[C@@H]1CN(c2cccc(-c3csc(NC(=O)CNC(=O)c4cccc(C5(F)CCOC5)c4)n3)n2)C[C@H](C)O1 (stereo in doubt) [Compound 441, N-(2-((4-(6-((cis)-2,6-dimethylmorpholino)pyridin-2-yl)thiazol-2-yl)amino)-2-oxoethyl)-3-((R)-3-fluorotetrahydrofuran-3-yl)benzamide]
BRG-1; 30 nM BRG-1, 400 μM ATP
  IC50: > 5 µM
  Emax: > 90%
BRM; 30 nM BRM, 400 μM ATP
  BRM Max % Inhibition: >90%
  IC50: 0.1 to 1 µM

## Cn1ccc2ccc(-c3csc(NC(=O)CNC(=O)c4ccc5c(c4)[C@](C)(F)COC5)n3)cc2c1=O [Compound 389, (S)-4-fluoro-4-methyl-N-(2-((4-(2-methyl-1-oxo-1,2-dihydroisoquinolin-7-yl)thiazol-2-yl)amino)-2-oxoethyl)isochromane-6-carboxamide]
BRG-1
  IC50: < 0.1 µM
  Emax: > 95%
BRM
  BRM Max % Inhibition: >95%
  IC50: < 0.1 µM

## Cc1ccc(C(=O)NCC(=O)Nc2nc(-c3cccc(N4C[C@@H](C)O[C@@H](C)C4)c3)cs2)cc1S(=O)(=O)C(C)C [Compound 125, N-(2-((4-(3-((cis)-2,6-dimethylmorpholino)phenyl)thiazol-2-yl)amino)-2-oxoethyl)-3-(isopropylsulfonyl)-4-methylbenzamide]
BRG-1
  IC50: 0.1 to 1 µM
  Emax: > 80%
BRM
  BRM Max % Inhibition: >95%
  IC50: < 0.1 µM

## C[C@@H]1CN(c2cc(F)cc(-c3csc(NC(=O)CNC(=O)c4ccc(Cl)c(C(C)(C)CO)c4)n3)c2)C[C@H](C)O1 [Compound 199, 4-chloro-N-[2-[[4-[3-[(cis)-2,6-dimethylmorpholin-4-yl]-5-fluoro-phenyl]thiazol-2-yl]amino]-2-oxo-ethyl]-3-(2-hydroxy-1,1-dimethyl-ethyl)benzamide]
BRG-1
  IC50: < 0.1 µM
  Emax: > 95%
BRM
  BRM Max % Inhibition: >95%
  IC50: < 0.1 µM

## Cc1cc(-c2cccc(-c3csc(NC(=O)CNC(=O)c4cccc(S(=O)(=O)C(C)CN)c4)n3)c2)cc(C)n1 (stereo not drawn) [Compound 114, 3-((1-aminopropan-2-yl)sulfonyl)-N-(2-((4-(3-(2,6-dimethylpyridin-4-yl)phenyl)thiazol-2-yl)amino)-2-oxoethyl)benzamide]
BRG-1
  IC50: 0.1 to 1 µM
  Emax: > 95%
BRM
  BRM Max % Inhibition: >90%
  IC50: < 0.1 µM

## C[C@H](N)C(C)(C)c1cccc(C(=O)NCC(=O)Nc2nc(-c3cccc(-c4ccncc4)c3)cs2)c1 [Compound 91]
BRG-1
  IC50: > 5 µM
  Emax: > 30%
BRM
  BRM Max % Inhibition: >50%
  IC50: 1 to 5 µM

## C[C@@H]1CN(c2cccc(-c3csc(NC(=O)CNC(=O)c4cccc(C5(C)COC5)c4)n3)n2)C[C@H](C)O1 [Compound 187, N-[2-[[4-[6-[(cis)-2,6-dimethylmorpholin-4-yl]-2-pyridyl]thiazol-2-yl]amino]-2-oxo-ethyl]-3-(3-methyloxetan-3-yl)benzamide]
BRG-1
  IC50: 0.1 to 1 µM
  Emax: > 70%
BRM
  BRM Max % Inhibition: >95%
  IC50: < 0.1 µM

## COc1cc(-c2cccc(-c3csc(NC(=O)CNC(=O)c4cccc(S(=O)(=O)C(C)C)c4)n3)c2)nc(C)n1 [Compound 123, 3-isopropylsulfonyl-N-[2-[[4-[3-(6-methoxy-2-methyl-pyrimidin-4-yl)phenyl]thiazol-2-yl]amino]-2-oxo-ethyl]benzamide]
BRG-1
  IC50: 0.1 to 1 µM
  Emax: > 80%
BRM
  BRM Max % Inhibition: >95%
  IC50: < 0.1 µM

## CC(C)S(=O)(=O)c1cccc(C(=O)NCC(=O)Nc2nc(-c3cccc(-c4cccc(C#N)c4)c3)cs2)c1 [Compound 24, N-(2-((4-(3′-cyano-[1,1′-biphenyl]-3-yl)thiazol-2-yl)amino)-2-oxoethyl)-3-(isopropylsulfonyl)benzamide]
BRG-1
  IC50: 1 to 5 µM
BRM
  BRM Max % Inhibition: >90%
  IC50: 0.1 to 1 µM

## Cc1cnc(O)c(-c2cccc(-c3csc(NC(=O)CNC(=O)c4ccc5c(c4)[C@@](C)(CO)CC5)n3)n2)c1 [Compound 190, (S)-N-(2-((4-(2′-hydroxy-5′-methyl-[2,3′-bipyridin]-6-yl)thiazol-2-yl)amino)-2-oxoethyl)-3-(hydroxymethyl)-3-methyl-2,3-dihydro-1H-indene-5-carboxamide]
BRG-1
  IC50: 0.1 to 1 µM
  Emax: > 70%
BRM
  BRM Max % Inhibition: >90%
  IC50: 0.1 to 1 µM

## C[C@@H]1CN(c2cccc(-c3csc(NC(=O)CNC(=O)c4ccnc(C(C)(C)C)c4)n3)c2)C[C@H](C)O1 [Compound 205, 2-(tert-butyl)-N-(2-((4-(3-((cis)-2,6-dimethylmorpholino)phenyl)thiazol-2-yl)amino)-2-oxoethyl)isonicotinamide]
BRG-1
  IC50: 1 to 5 µM
  Emax: > 70%
BRM
  BRM Max % Inhibition: >95%
  IC50: 0.1 to 1 µM

## Cn1ccc(-c2cccc(-c3csc(NC(=O)CNC(=O)c4ccc5c(c4)[C@](C)(CO)CC5)n3)n2)n1 [Compound 265, (3R)-3-(hydroxymethyl)-3-methyl-N-[2-[[4-[6-(1-methylpyrazol-3-yl)-2-pyridyl]thiazol-2-yl]amino]-2-oxo-ethyl]indane-5-carboxamide]
BRG-1
  IC50: > 5 µM
  Emax: > 30%
BRM
  BRM Max % Inhibition: >70%
  IC50: 1 to 5 µM

## C[C@@]1(F)COCc2ccc(C(=O)NCC(=O)Nc3nc(-c4cccc(C(F)F)c4)cs3)cc21 [Compound 341, (S)-N-(2-((4-(3-(difluoromethyl)phenyl)thiazol-2-yl)amino)-2-oxoethyl)-4-fluoro-4-methylisochromane-6-carboxamide]
BRG-1
  IC50: 0.1 to 1 µM
  Emax: > 95%
BRM
  BRM Max % Inhibition: >95%
  IC50: < 0.1 µM

## CC1(C#N)CCc2ccc(C(=O)NCC(=O)Nc3nc(-c4cccc(-c5ccncc5)c4)cs3)cc21 (stereo not drawn) [Compound 76, 3-cyano-3-methyl-N-(2-oxo-2-((4-(3-(pyridin-4-yl)phenyl)thiazol-2-yl)amino)ethyl)-2,3-dihydro-1H-indene-5-carboxamide]
BRG-1
  IC50: < 0.1 µM
  Emax: > 80%
BRM
  BRM Max % Inhibition: >95%
  IC50: < 0.1 µM

## Cn1ccc2ccc(-c3csc(NC(=O)CNC(=O)c4cccc(C5(C#N)CCC5)c4)n3)cc2c1=O [Compound 147, 3-(1-cyanocyclobutyl)-N-(2-((4-(2-methyl-1-oxo-1,2-dihydroisoquinolin-7-yl)thiazol-2-yl)amino)-2-oxoethyl)benzamide]
BRG-1
  IC50: 1 to 5 µM
  Emax: > 80%
BRM
  BRM Max % Inhibition: >90%
  IC50: 0.1 to 1 µM

## CC(C)(CN)c1cccc(C(=O)NCC(=O)Nc2nc(-c3cccc(-c4ccncc4)c3)cs2)c1 [Compound 64, 3-(1-amino-2-methylpropan-2-yl)-N-(2-oxo-2-((4-(3-(pyridin-4-yl)phenyl)thiazol-2-yl)amino)ethyl)benzamide]
BRG-1
  IC50: 1 to 5 µM
  Emax: > 80%
BRM
  BRM Max % Inhibition: >95%
  IC50: 0.1 to 1 µM

## C[C@@H]1CN(c2cccc(-c3csc(NC(=O)CNC(=O)c4cc(C(C)(C)C)ncc4F)n3)c2)C[C@H](C)O1 [Compound 383, 2-(tert-butyl)-N-(2-((4-(3-((cis)-2,6-dimethylmorpholino)phenyl)thiazol-2-yl)amino)-2-oxoethyl)-5-fluoroisonicotinamide]
BRG-1
  IC50: > 5 µM
  Emax: > 85%
BRM
  BRM Max % Inhibition: >85%
  IC50: 0.1 to 1 µM

## C[C@@H]1CN(c2cccc(-c3csc(NC(=O)CNC(=O)c4ccc5c(c4)S(=O)(=O)CCCC5)n3)c2)C[C@H](C)O1 [Compound 128, N-(2-((4-(3-((cis)-2,6-dimethylmorpholino)phenyl)thiazol-2-yl)amino)-2-oxoethyl)-2,3,4,5-tetrahydrobenzo[b]thiepine-8-carboxamide 1,1-dioxide]
BRG-1
  IC50: < 0.1 µM
  Emax: > 95%
BRM
  BRM Max % Inhibition: >95%
  IC50: < 0.1 µM

## C[C@@H]1CN(c2cccc(-c3csc(NC(=O)CNC(=O)c4cccc(C5(F)COC5)c4)n3)c2)C[C@H](C)O1 [Compound 183, N-(2-((4-(3-((cis)-2,6-dimethylmorpholino)phenyl)thiazol-2-yl)amino)-2-oxoethyl)-3-(3-fluorooxetan-3-yl)benzamide]
BRG-1
  IC50: 1 to 5 µM
  Emax: > 70%
BRM
  BRM Max % Inhibition: >90%
  IC50: 0.1 to 1 µM
